Data from patent EP1923473B1, “Bis-diglycolamides (BISDGA) as new extractants for lanthanides [Ln(III)] and actinides [An(III)] from aqueous high-level wastes” (Universidad Autónoma de Madrid, priority 2006, dated 2008).

Experiments:
Type in all cases: physicochemical
[1] = Batch extraction from simulated HLLW from the PUREX process, gamma spectrometry; conditions: 0.1 mol/L in TPH/1-octanol (90:10)
Text: (§1) The feed solution used for the extraction tests is a simulated solution of an HLLW from the PUREX process, the composition of which is shown in Table 4. Table 4: Composition of the simulated HLLW-PUREX solution used for the extraction tests
(§2) The composition of the HLLW corresponds to a burn-up of 33 GWd/tHM, the generated volume of HLLW being 5000 1/t of fuel. The feed was spiked with ^241Am, ^244Cm, ^252Cf and ^152Eu. Oxalic acid and N-(2-hydroxyethyl)ethylenediaminotriacetate (HEDTA) were also added before the extraction tests.
(§3) 500 µL of the aqueous and organic phases were spiked with 10 µL of a tracer solution containing 241Am, 244Cm, 252Cf and ^152Eu, and were equilibrated for 10 minutes while they were stirred vigorously in a vortex stirrer. After the separation of the phases by centrifugation, 200 µL aliquots of each phase were taken for the determination of the concentration of ^241Am and ^152Eu using a high-purity germanium spectrometer system (EG&G Ortec). The nuclides ^241Am, ^244Cm and ^252Cf were measured by alpha spectrometry with an α-Analyst device of the company Canberra-Packard GmbH, Germany.
(§4) The concentrations of the stable elements were determined by mass spectrometry with an inductively coupled plasma source (ICP-MS) in a DRC Elan 6100 device of Perkin Elmer Sciex. The aqueous phase was measured directly after the appropriate dilution. The organic phase was analyzed after having mineralized the organic matter by microwave acid digestion and subsequent dilution.
(§5) The distribution coefficients were calculated for each element according to section C).
(§6) A 0.1 mol/L solution of compound 4 in the "TPH/1-octanol (90:10)%vol" mixture was prepared. Extraction experiments were carried out with said simulated HLLW in a pure form and also adding oxalic acid and HEDTA to it. These complexing agents have shown to be effective in the DIAMEX process for the complexing of Mo, Zr (H2C2O4) and Pd (HEDTA).
(§7) Extraction experiments were carried out with said simulated HLLW in a pure form and also adding oxalic acid and HEDTA to it.

[2] = Batch extraction from simulated HLLW from the PUREX process, alpha spectrometry; conditions: 0.1 mol/L in TPH/1-octanol (90:10)
Text: as §1, §2, §3, §4, §5, §6, §7

[3] = Re-extraction with diluted nitric acid solutions; conditions: 0.1 mol/L in TPH/1-octanol (95:5)%vol; for re-extraction steps necessary: 0.016 mol/L of stable Eu(III) present
Method: 0.1 mol/L samples of compound 4 in a "TPH/1-octanol (95:5)%vol" mixture were prepared. Extractions of Am(III) and Eu(III) were carried out from 3 mol/L nitric acid solutions containing only the radionuclides ^152Eu and ^241Am and 3 mol/L nitric acid solutions containing the radionuclides ^152Eu and ^241Am and 0.016 mol/L of stable Eu(III), simulating the total concentration of Ln(III) in a HLLW from the PUREX process. Once the extraction process was carried out, a washing step with a 1 mol/L nitric acid solution was carried out. Then, different re-extraction steps were carried out with 0.01 mol/L nitric acid solutions, simulating a continuous process. The evolution of the concentration of Am(III) and Eu(III) in the organic phase in the different extraction, scrubbing and re-extraction steps is shown in Figure 14.
Nevertheless, it is possible to regenerate the organic solutions of compound 18 for subsequent extraction cycles in an industrial continuous process.

[4] = Radiolytic stability, extraction capability after irradiation; conditions: for DEu / DAm: after 1000 kGy
Method: The tests of stability against irradiation were carried out in the NAYADE facility at CIEMAT site, with external ^60Co sources with an approximate activity of 5000 Ci, with a homogeneous irradiation flux. The dose rate applied in all the experiments was 4 kGy/h and integrated doses of 250 kGy, 500 kGy, 750 kGy and 1000 kGy were considered. The irradiation device consists of a metal cylinder which is introduced in a rack wherein the ^60CO sources are placed radially, such that the irradiation is homogeneous. The irradiation process is carried out submersing the device in a pool of water with a depth of 4 meters.
Irradiation tests of the solid compound (in the absence of solvent) and of the compound dissolved in the "n-dodecane/1-octanol (95:5)%vol" mixture, equilibrated with 3 mol/L nitric acid, were carried out. The organic solutions were prepared and equilibrated as detailed in the previous sections A) and B).
Once each programmed integrated dose was reached, the extraction capability of the organic samples was evaluated as detailed in section C).
The irradiation of compound 4 in solid form (in the absence of solvent) and dissolved at a 0.1 mol/L concentration in the "n-dodecane/1-octanol 1 (95:5)%vol" mixture, equilibrated with 3 mol/L nitric acid, was carried out. The applied dose rate was 4 kGy/h and the considered integrated doses were 250 kGy, 500 kGy, 750 kGy and 1000 kGy. After each integrated dose, the extraction capability of Am(III) and Eu(III) was evaluated as described in section C.
The considered integrated doses in this experiment were 500 kGy and 1000 kGy at a dose rate of 4 kGy/h.

[5] = Oxalic acid 0.2 mol/L, HEDTA 0.05 mol/L, TBP 0.5 mol/L
[6] = Oxalic acid 0.2 mol/L, HEDTA 0.05 mol/L, TBP No
[7] = Oxalic acid 0.3 mol/L, HEDTA 0.05 mol/L, TBP 0.5 mol/L
[8] = Oxalic acid 0.3 mol/L, HEDTA 0.05 mol/L, TBP No
[9] = Oxalic acid No, HEDTA No, TBP 0.5 mol/L
[10] = Oxalic acid No, HEDTA No, TBP No
[11] = irradiated dissolved in n-dodecane/1-octanol (95:5)%vol, equilibrated with 3 mol/L nitric acid
[12] = irradiated in the absence of solvent

Substance | Distribution coefficients Am-241, γ [1, 5] | Distribution coefficients Am-241, γ [1, 6] | Distribution coefficients Am-241, γ [1, 7] | Distribution coefficients Am-241, γ [1, 8] | Distribution coefficients Am-241, γ [1, 9] | Distribution coefficients Am-241, γ [1, 10] | Distribution coefficients Am-241, α [2, 5] | Distribution coefficients Am-241, α [2, 6] | Distribution coefficients Am-241, α [2, 7] | Distribution coefficients Am-241, α [2, 8] | Distribution coefficients Am-241, α [2, 9] | Distribution coefficients Am-241, α [2, 10] | re-extraction steps necessary ([3]; 0.01 mol/L nitric acid) | re-extraction steps for complete re-extraction ([3]; only the radionuclides 152Eu and 241Am present, 0.01 mol/L nitric acid) | DEu [4, 11] | Dn ([4]; up to 1000 kGy, irradiated dissolved in n-dodecane/1-octanol (95:5)%vol, equilibrated with 3 mol/L nitric acid) | Am(III) and Eu(III) recovered from the organic phase ([3]; tracers only (152Eu and 241Am), after three re-extraction steps with 0.01 mol/L nitric acid) | DAm [4, 11] | DAm [4, 12] | DEu [4, 12]
2-Dioctylcarbamoylmethoxy-N-[3-[3-(2-dioctylcarbamoyl-methoxyacetylamino)propoxy]propyl]acetamide [Compound 18] | 70 | 100 | 61 | 97 | 65 | 96 | 55 | 46 | 90 | 87 | 56 | 96 | six re-extraction steps | four re-extraction steps | 964 | 531 |  |  |  | 
2-Dioctylcarbamoylmethoxy-N-[3-[(2-dioctylcarbamoyl-methoxy-acetylamino)methyl]benzyl]acetamide [Compound 4] | 63 | 131 | 82 | 141 | 70 | 99 | 52 | 158 | 83 | 164 | 58 | 112 | an additional re-extraction step is necessary |  | 780 |  | more than 99.9% | 180 | 540 | 1000
